Species: Rattus norvegicus
Assay: Open TG-GATES - Regimen: Daily Repeat
Type: toxicity, organism-based, Sprague-Dawley
Parameters: regimen Daily Repeat, gender Male, age 6 weeks
Conditions: in vivo, iv, route intravenous injection; for APTT / Bas / Eos / Fbg / Hb / Ht / Lym / MCH / MCHC / MCV / Mono / Neu / PT / Plat / RBC / Ret / WBC: tissue Blood; for KIDNEY_L / KIDNEY_R / KIDNEY_TOTAL: tissue Kidney; for LIVER: tissue Liver; for A/G / ALP / ALT / AST / BUN / CRE / Ca / Cl / DBIL / GLC / IP / K / LDH / Na / PL / RALB / TBIL / TC / TG / TP / gamma-GTP: tissue Plasma
[1] = 0 mg/kg, 72 h, dose level Control, time 3 day
[2] = 0 mg/kg, […], dose level Control, time 7 day
[3] = 0 mg/kg, […], dose level Control, time 14 day
[4] = 0 mg/kg, […], dose level Control, time 28 day
[5] = 4 mg/kg, 72 h, dose level Low, time 3 day
[6] = 4 mg/kg, […], dose level Low, time 7 day
[7] = 4 mg/kg, […], dose level Low, time 14 day
[8] = 4 mg/kg, […], dose level Low, time 28 day

## CN(C)c1ncnc2c1ncn2[C@@H]1O[C@H](CO)[C@@H](N)[C@H]1O [PUROMYCIN AMINONUCLEOSIDE]
[1]
  TERMINAL_BW: 230.5 g
  APTT: 22.1 s
  Bas: 0%
  Eos: 1%
  Fbg: 290.4 mg/dL
  Hb: 12.9 g/dL
  Ht: 37.6%
  Lym: 76.8%
  MCH: 21.1 pg
  MCHC: 34.2%
  MCV: 61.7 fL
  Mono: 2.6%
  Neu: 18.8%
  PT: 16.1 s
  Plat: 127.4 x10_4/uL
  RBC: 610 x10_4/ul
  Ret: 5.7%
  WBC: 113.8 x10_2/uL
  KIDNEY_L: 1 g
  KIDNEY_R: 1 g
  KIDNEY_TOTAL: 2 g
  LIVER: 10.3 g
  A/G: 1.3
  ALP: 1374.2 IU/L
  ALT: 40.6 IU/L
  AST: 74 IU/L
  BUN: 17.2 mg/dL
  CRE: 0.2 mg/dL
  Ca: 10.9 mg/dL
  Cl: 106.6 meq/L
  DBIL: 0 mg/dL
  GLC: 195.8 mg/dL
  IP: 6.8 mg/dL
  K: 4.7 meq/L
  LDH: 183.8 IU/L
  Na: 142.2 meq/L
  PL: 141.6 mg/dL
  RALB: 3.1 g/dL
  TBIL: 0.008 mg/dL
  TC: 73.2 mg/dL
  TG: 95.2 mg/dL
  TP: 5.4 g/dL
  gamma-GTP: 1.8 IU/L
[2]
  TERMINAL_BW: 262.2 g
  APTT: 22.5 s
  Bas: 0%
  Eos: 1%
  Fbg: 274.8 mg/dL
  Hb: 13.7 g/dL
  Ht: 39.4%
  Lym: 80.4%
  MCH: 21.3 pg
  MCHC: 34.9%
  MCV: 61 fL
  Mono: 2%
  Neu: 15.6%
  PT: 16 s
  Plat: 111 x10_4/uL
  RBC: 645.6 x10_4/ul
  Ret: 4.8%
  WBC: 97.9 x10_2/uL
  KIDNEY_L: 1 g
  KIDNEY_R: 1.1 g
  KIDNEY_TOTAL: 2.1 g
  LIVER: 12.2 g
  A/G: 1.2
  ALP: 1257.2 IU/L
  ALT: 35.4 IU/L
  AST: 63 IU/L
  BUN: 17.6 mg/dL
  CRE: 0.2 mg/dL
  Ca: 10.7 mg/dL
  Cl: 105.6 meq/L
  DBIL: 0 mg/dL
  GLC: 210.6 mg/dL
  IP: 7.3 mg/dL
  K: 4 meq/L
  LDH: 167.4 IU/L
  Na: 142 meq/L
  PL: 141.6 mg/dL
  RALB: 3 g/dL
  TBIL: 0.018 mg/dL
  TC: 67.2 mg/dL
  TG: 108.8 mg/dL
  TP: 5.5 g/dL
  gamma-GTP: 1.4 IU/L
[3]
  TERMINAL_BW: 322.5 g
  APTT: 22 s
  Bas: 0%
  Eos: 0.8%
  Fbg: 293.8 mg/dL
  Hb: 14 g/dL
  Ht: 39.5%
  Lym: 79.4%
  MCH: 20.6 pg
  MCHC: 35.5%
  MCV: 58.3 fL
  Mono: 3.2%
  Neu: 15%
  PT: 16.3 s
  Plat: 109.5 x10_4/uL
  RBC: 679 x10_4/ul
  Ret: 3.4%
  WBC: 120 x10_2/uL
  KIDNEY_L: 1.2 g
  KIDNEY_R: 1.2 g
  KIDNEY_TOTAL: 2.4 g
  LIVER: 13.6 g
  A/G: 1.3
  ALP: 1494.8 IU/L
  ALT: 36.8 IU/L
  AST: 69.4 IU/L
  BUN: 19.2 mg/dL
  CRE: 0.2 mg/dL
  Ca: 10.9 mg/dL
  Cl: 104.6 meq/L
  DBIL: 0 mg/dL
  GLC: 204.2 mg/dL
  IP: 7.2 mg/dL
  K: 4.3 meq/L
  LDH: 176.8 IU/L
  Na: 141.6 meq/L
  PL: 144.4 mg/dL
  RALB: 3.1 g/dL
  TBIL: 0.006 mg/dL
  TC: 65.8 mg/dL
  TG: 119.8 mg/dL
  TP: 5.6 g/dL
  gamma-GTP: 2 IU/L
[4]
  TERMINAL_BW: 396.1 g
  APTT: 25.7 s
  Bas: 0%
  Eos: 1%
  Fbg: 299.6 mg/dL
  Hb: 15.2 g/dL
  Ht: 42.3%
  Lym: 74.6%
  MCH: 19.6 pg
  MCHC: 35.8%
  MCV: 54.8 fL
  Mono: 3.4%
  Neu: 19.6%
  PT: 16.3 s
  Plat: 105.3 x10_4/uL
  RBC: 772.2 x10_4/ul
  Ret: 2.2%
  WBC: 111.8 x10_2/uL
  KIDNEY_L: 1.3 g
  KIDNEY_R: 1.3 g
  KIDNEY_TOTAL: 2.7 g
  LIVER: 14.9 g
  A/G: 1
  ALP: 1115.6 IU/L
  ALT: 31 IU/L
  AST: 60.5 IU/L
  BUN: 18.6 mg/dL
  CRE: 0.2 mg/dL
  Ca: 10.4 mg/dL
  Cl: 104.2 meq/L
  DBIL: 0 mg/dL
  GLC: 184.8 mg/dL
  IP: 6.1 mg/dL
  K: 4.2 meq/L
  LDH: 174 IU/L
  Na: 142.6 meq/L
  PL: 133.4 mg/dL
  RALB: 3.1 g/dL
  TBIL: 0.01 mg/dL
  TC: 68.2 mg/dL
  TG: 101.2 mg/dL
  TP: 6.1 g/dL
  gamma-GTP: 2 IU/L
[5]
  TERMINAL_BW: 232.9 g
  APTT: 20.8 s
  Bas: 0%
  Eos: 1%
  Fbg: 318.6 mg/dL
  Hb: 13.1 g/dL
  Ht: 38.3%
  Lym: 78.6%
  MCH: 21.3 pg
  MCHC: 34.3%
  MCV: 62.1 fL
  Mono: 3%
  Neu: 16.2%
  PT: 15.9 s
  Plat: 136.9 x10_4/uL
  RBC: 616 x10_4/ul
  Ret: 5.3%
  WBC: 98.6 x10_2/uL
  KIDNEY_L: 1 g
  KIDNEY_R: 1 g
  KIDNEY_TOTAL: 1.9 g
  LIVER: 10.2 g
  A/G: 1.3
  ALP: 1424.8 IU/L
  ALT: 40.8 IU/L
  AST: 73.4 IU/L
  BUN: 17.4 mg/dL
  CRE: 0.2 mg/dL
  Ca: 11.1 mg/dL
  Cl: 104.2 meq/L
  DBIL: 0 mg/dL
  GLC: 189.4 mg/dL
  IP: 7.6 mg/dL
  K: 4.4 meq/L
  LDH: 200.6 IU/L
  Na: 141.6 meq/L
  PL: 149.2 mg/dL
  RALB: 3 g/dL
  TBIL: 0.02 mg/dL
  TC: 76 mg/dL
  TG: 102.2 mg/dL
  TP: 5.5 g/dL
  gamma-GTP: 1.2 IU/L
[6]
  TERMINAL_BW: 256.3 g
  APTT: 21 s
  Bas: 0%
  Eos: 1.4%
  Fbg: 282.8 mg/dL
  Hb: 13.4 g/dL
  Ht: 38.8%
  Lym: 76.4%
  MCH: 20.5 pg
  MCHC: 34.4%
  MCV: 59.4 fL
  Mono: 2%
  Neu: 19.2%
  PT: 15.9 s
  Plat: 118.6 x10_4/uL
  RBC: 654.8 x10_4/ul
  Ret: 3.7%
  WBC: 112.4 x10_2/uL
  KIDNEY_L: 1 g
  KIDNEY_R: 1.1 g
  KIDNEY_TOTAL: 2.1 g
  LIVER: 11 g
  A/G: 1.2
  ALP: 1296.4 IU/L
  ALT: 37.8 IU/L
  AST: 67.8 IU/L
  BUN: 17 mg/dL
  CRE: 0.2 mg/dL
  Ca: 10.6 mg/dL
  Cl: 107.2 meq/L
  DBIL: 0 mg/dL
  GLC: 180.6 mg/dL
  IP: 6.7 mg/dL
  K: 4.1 meq/L
  LDH: 149.6 IU/L
  Na: 142.6 meq/L
  PL: 139.4 mg/dL
  RALB: 3 g/dL
  TBIL: 0.014 mg/dL
  TC: 73.4 mg/dL
  TG: 87.8 mg/dL
  TP: 5.5 g/dL
[7]
  TERMINAL_BW: 310.3 g
  APTT: 23.5 s
  Bas: 0%
  Eos: 0.8%
  Fbg: 303.4 mg/dL
  Hb: 13.6 g/dL
  Ht: 38.9%
  Lym: 77.8%
  MCH: 20.7 pg
  MCHC: 35%
  MCV: 59.1 fL
  Mono: 2.4%
  Neu: 18%
  PT: 16.3 s
  Plat: 133.5 x10_4/uL
  RBC: 658 x10_4/ul
  Ret: 4.7%
  WBC: 105.4 x10_2/uL
  KIDNEY_L: 1.2 g
  KIDNEY_R: 1.3 g
  KIDNEY_TOTAL: 2.5 g
  LIVER: 12.6 g
[8]
  TERMINAL_BW: 371.4 g
  APTT: 23.1 s
  Bas: 0%
  Eos: 1.6%
  Fbg: 538.4 mg/dL
  Hb: 14.5 g/dL
  Ht: 40%
  Lym: 72.8%
  MCH: 20.2 pg
  MCHC: 36.3%
  MCV: 55.6 fL
  Mono: 3.2%
  Neu: 21.8%
  PT: 14.6 s
  Plat: 134.3 x10_4/uL
  RBC: 719.6 x10_4/ul
  Ret: 2.5%
  WBC: 156.1 x10_2/uL
  KIDNEY_L: 1.5 g
  KIDNEY_R: 1.4 g
  KIDNEY_TOTAL: 2.9 g
  LIVER: 16.8 g
